Measured values as given in patent US10544112B2, “Identification of ebsulfur analogues with broad-spectrum antifungal activity” (priority 2017, dated 2020).

System: C. albicans ATCC 10231 (strain A)
Experiment: ROS production assay (DCFH-DA)
Type: cell-based, Candida albicans
Settings: 1× and 2× MIC (H2O2 1 mM), 1-h treatment
Description: ROS production assay was performed as previously described with minor modifications. […] Once entering the cells, the DCFH-DA probe is first hydrolyzed to the non-fluorescent 2′,7′-dichlorodihydrofluorescein (DCFH) by cellular esterases. […] A colony of C. albicans ATCC 10231 (strain A) was used to inoculate 5 mL of PDB in a Falcon tube and grown overnight at 35° C. at 200 rpm.
Thus, whether the compounds of the invention would also induce ROS against C. albicans was studied. […] 2′,7′-dichlorodihydrofluorescin diacetate (DCFH-DA) was then used to detect and visualize ROS production (FIG. 5). As a positive control, cells were treated with H2O2, which is an inducer of hydroxyl radical formation.

**Q.** With `CCCCCn1sc2ccccc2c1=O` [Compound 3a] as the compound, how does the “ROS induction (DCFH-DA fluorescence)” value read?
**A.** highly fluorescent
